According to patent US10934351B2, “Cancer stem cell-specific molecule” (CHUGAI SEIYAKU KABUSHIKI KAISHA, priority 2011, dated 2021):

Experiments:
[1] = tested on: Lgr5-positive large intestine CSCs; experiment: Cell proliferation / chemosensitivity assay (Cell Counting Kit-8), adherent CSCs; format: cell-based, human
Protocol: (§1) Floating and adherent CSCs were plated at about 100 and 1×10^4 cells/well in 96-well plates, respectively. On days 0 and 3, viable cell counts were determined by the Cell Counting Kit-8 Assay (Doujindo) according to the manufacturer's protocol. Average absorbance on day 0 was taken as 100%. For chemosensitivity assay, floating and adherent CSCs were plated at about 100 and 1×10^4 cells/well in 96-well plates, respectively. […] After three days of culture in the presence of the agents, the Cell Counting Kit-8 was added to the cells. The average absorbance of cells exposed to DMSO or medium alone was taken as 100%. All experiments were performed in triplicate.

[2] = tested on: Lgr5-negative large intestine CSCs; experiment: Cell proliferation / chemosensitivity assay (Cell Counting Kit-8), Lgr5-negative CSCs; format: cell-based, human; settings: for proliferation and survival of Lgr5-negative large intestine CSCs: 10 μg/ml, three days (FIGS. 10 and 24); for percentage of viable cells relative to non-treated control cells: Lgr5-negative CSCs (PLR59 and PLR123), three days, concentration series (FIG. 47)
Protocol: as §1

[3] = tested on: Lgr5-positive large intestine CSCs; experiment: Change in Lgr5 expression of Lgr5-positive CSCs after chemotherapeutic treatment (flow cytometry / immunocytochemistry); format: cell-based, human; settings: for Lgr5 state of drug-resistant cells arising from Lgr5-positive CSCs: three-day exposure, 10 μg/ml (FIGS. 11, 32, 25)
Protocol: Large intestine CSCs were incubated with mouse anti-human Lgr5 antibody (2T15E-2) and then with […] rat anti-mouse IgG antibody (Invitrogen) to stain Lgr5. The aldehyde dehydrogenase activity was measured using the AldeFluor Kit (Stemcell Technologies). Mouse cells were discriminated from human large intestine CSCs by staining with anti-mouse MHC class I antibody (Abcam), and PE- or APC-labeled goat […] IgG2a antibody (BioLegend). Dead cells were also removed using the 7-AAD Viability Dye (Beckman Coulter).
In addition, to assess whether Lgr5-negative large intestine CSCs undergo a transition into an Lgr5-positive state, the present inventors cultured adherently Lgr5-negative large intestine CSCs prepared via irinotecan treatment again in a serum-free stem cell culture medium. […] On the other hand, when Lgr5-positive adherent large intestine CSCs were cultured in an ultra-low adherent plate, the present inventors observed that some of the cells halted their growth and formed a spheroid-like structure and that the Lgr5 mRNA level was very low (FIGS. 12 and 33). The transition from the Lgr5-positive to Lgr5-negative state (and the reverse) was also confirmed by observations using a single cell in culture. […]
Using a stem cell medium, Lgr5-positive adherent cells were seeded at 3×10^5 cells/well in a 6-well plate (BD, Cat. No. 353046). […] After three-day culture, irinotecan-resistant cells were detected. […]
FITC-labeled mouse mAb to human CD326 (EpCAM), PE-labeled mouse mAb to human CD133/1 (AC133), PE-labeled mouse mAb to human CD44, PE-labeled mouse mAb to human CD166, PE-labeled mouse mAb to human CD24, PE-labeled mouse mAb to human CD26, or PE-labeled mouse mAb to human CD29. […] The ALDH activity was detected using AldeFluor Kit according to the procedure recommended by the manufacturer. […] Cells negative for 7-AAD Viability Dye were analyzed for cancer stem cell markers.

[4] = tested on: tumors derived from Lgr5-positive CSCs (PLR123); experiment: Irinotecan treatment of NOG mice bearing tumors derived from Lgr5-positive CSCs; format: in vivo
Protocol: Mice bearing tumors derived from Lgr5-positive CSCs (PLR123) were treated with irinotecan, and their tumors were observed. Irinotecan or vehicle was administered to mice at days 12, 15, and 18 after tumor grafting. Scale bar represents 25 μm.
FIG. 55 Irinotecan was administered at a dose of 120 mg/kg/day to NOG mice at days 12, 15, and 18 after grafting tumors derived from Lgr5-positive CSCs (PLR123). This figure is a graph showing tumor volumes in control mice administered with vehicle (closed diamond) and mice administered with irinotecan (closed square or triangle). Each value represents mean+standard deviation.
FIG. 56 is a graph showing the numbers of Lgr5-positive and HLA-DMA-positive cells in xenograft tumor tissues. Thin sections of tissues were treated with Lgr5 antibody and HLA-DMA antibody, and then the numbers of Lgr5-positive and HLA-DMA-positive cells were measured. Values represent the total numbers of cells counted for respective groups (n=3).
To probe the possibility of in vivo transition to a growth inhibitor-resistant state, irinotecan was administered at the maximum tolerated dose (MTD) (120 mg/kg) into the peritoneal cavities of NOG mice bearing tumors derived from Lgr5-positive CSCs. […] By contrast, in vehicle-treated control mice, about one third of cancer cells were positive for Lgr5 in both ductal and budding areas (FIG. 54). Both Lgr5-positive cells and HLA-DMA-positive and Lgr5-negative cells were positive for EREG, and were identified to be CSCs (FIG. 54). After irinotecan treatment, Lgr5-positive cells appeared again (FIG. 54).

[5] = tested on: irinotecan-non-treated PLR123; experiment: Internalization activity / anti-tumor effect with Mab-ZAP or Rat-ZAP (CellTiter-Glo); format: cell-based, human; settings: with Mab-ZAP or Rat-ZAP 1 μg/ml, 72 hours
Protocol: (§2) Mab-ZAP and Rat-ZAP are anti-mouse IgG antibody and anti-rat IgG antibody, respectively, conjugated with saporin, a toxin that inhibits protein synthesis (Advanced Targeting Systems). To assess the activity of internalization into irinotecan-non-treated cells, PLR59 and PLR123 cells were seeded at a cell density of 30000 cells/80 μl/well to respective wells of a 96-well plate. Following day, each antibody solution was added at a final concentration of 0.01, 0.1, or 1 μg/ml to the respective wells. Then, Mab-ZAP or Rat-ZAP was added at a final concentration 1 μg/ml to the respective wells, and the plate was incubated at 37° C. for 72 hours in a CO2 incubator. To assess the activity of internalization into irinotecan-treated cells, PLR59 and PLR123 cells were seeded in a 96-well plate, and irinotecan was added at a final concentration of 15 μM to each well. The plate was incubated at 37° C. for 72 hours in a CO2 incubator. Various antibodies were assessed for the activity of internalization to cells cultured as described above in the presence or absence of irinotecan. For assay, the various antibodies were each assessed for the internalization activity into cells contained in each well where the medium was replaced with the same irinotecan-free medium as used for irinotecan-non-treated cells. Seventy-two hours after addition of antibodies and Mab-ZAP or Rat-ZAP, 10 μl of 3% SDS (Nacalai Tesque) was added to each well of the plate. The cells in the plate were lysed thoroughly by stirring the plate using a plate mixer. Then, 100 μl of CellTiter-Glo™ Luminescent Cell Viability Assay (Promega) was added to each well. The mixture in each well was assayed to determine its luminescent signal. […] In Table 14, symbols, −, +, ++, and +++, represent relative values for the internalization activity when a test antibody was assayed at a concentration of […]. […] Symbols, −, +, ++, and +++, indicate that the relative value is less than 5%, 5% or more and less than 15%, 15% or more and less than 25%, and 25% or more, respectively.

[6] = tested on: irinotecan-non-treated PLR59; experiment: as above; format: cell-based, human; settings: with Mab-ZAP or Rat-ZAP 1 μg/ml, 72 hours
Protocol: as §2

[7] = tested on: irinotecan-non-treated PLR123; experiment: Flow cytometry (FCM) binding activity of commercially available antibodies to cell-surface antigens; set-up: species or system human; settings: with antibody
Protocol: (§3) The present inventors tested whether an anti-tumor effect can be expected with target therapy using a membrane protein expressed at a high level as the target in irinotecan-treated or non-treated PLR59 and PLR123. Commercially available antibodies shown in Table 12 were assessed by flow cytometry (FCM) for the binding activity to antigens expressed on the cell surface of irinotecan-treated or non-treated PLR59 or PLR123.

[8] = tested on: irinotecan-non-treated PLR59; experiment: as above; set-up: species or system human; settings: with antibody
Protocol: as §3

[9] = 10 μg/ml, three days (FIGS. 10 and 24)
[10] = 120 mg/kg irinotecan (FIGS. 54 and 56)

## Cc1cc([N+](=O)[O-])ccc1NS(=O)(=O)c1cc(Cl)ccc1Cl [FH535]
[1]; 50 μM, three days of culture, PLR59 and PLR123 (FIGS. 8 and 22)
  proliferation of Lgr5-positive large intestine CSCs: significantly reduced
[2]; 50 μM, three days of culture (FIGS. 8 and 22)
  proliferation of Lgr5-negative large intestine CSCs: had no effect

## CCc1c2c(nc3ccc(OC(=O)N4CCC(N5CCCCC5)CC4)cc13)-c1cc3c(c(=O)n1C2)COC(=O)[C@]3(O)CC [irinotecan]
[1]; [9]
  proliferation of Lgr5-positive large intestine CSCs: significantly inhibited
[2]
  proliferation and survival of Lgr5-negative large intestine CSCs: did not affect
  percentage of viable cells relative to non-treated control cells: fully resistant
[3]; single cells cultured in multi-well plate, irinotecan treatment, within three days (FIG. 49, Table 5)
  transition of single Lgr5-positive cells into the Lgr5-negative state: underwent a transition into the Lgr5-negative state
[3]
  Lgr5 state of drug-resistant cells arising from Lgr5-positive CSCs: negative for Lgr5
[4]; 120 mg/kg (MTD) into the peritoneal cavities, days 12, 15, 18 after grafting (FIG. 55)
  tumor growth: inhibited almost completely
[4]; [10]
  Lgr5-positive cells in tumor: dramatic decrease
  number of Lgr5-negative and HLA-DMA-positive cells in tumor: increased significantly

## O=c1[nH]cc(F)c(=O)[nH]1 [5-FU, fluorouracil]
[1]; [9]
  proliferation of Lgr5-positive large intestine CSCs: significantly inhibited
[2]
  proliferation and survival of Lgr5-negative large intestine CSCs: did not affect
  percentage of viable cells relative to non-treated control cells: fully resistant
[3]
  Lgr5 state of drug-resistant cells arising from Lgr5-positive CSCs: negative for Lgr5

## COc1cc(O)cc(O)c1C(=O)/C=C/c1ccccc1 [cardamonin]
[1]; 50 μM, three days of culture, Lgr5-positive CSCs (FIGS. 8 and 22)
  viable cell count: 70%
[2]; 50 μM, three days of culture, Lgr5-negative CSCs (FIGS. 8 and 22)
  viable cell count: about 50%

B1: EDAR (protein, listed as Homo sapiens)
chain: MAHVGDCTQTPWLPVLVVSLMCSARAEYSNCGENEYYNQTTGLCQECPPCGPGEEPYLSCGYGTKDEDYGCVPCPAEKFSKGGYQICRRHKDCEGFFRATVLTPGDMENDAECGPCLPGYYMLENRPRNIYGMVCYSCLLAPPNTKECVGATSGASANFPGTSGSSTLSPFQHAHKELSGQGHLATALIIAMSTIFIMAIAIVLIIMFYILKTKPSAPACCTSHPGKSVEAQVSKDEEKKEAPDNVVMFSEKDEFEKLTATPAKPTKSENDASSENEQLLSRSVDSDEEPAPDKQGSPELCLLSLVHLAREKSATSNKSAGIQSRRKKILDVYANVCGVVEGLSPTELPFDCLEKTSRMLSSTYNSEKAVVKTWRHLAESFGLKRDEIGGMTDGMQLFDRISTAGYSIPELLTKLVQIERLDAVESLCADILEWAGVVPPASQPHAAS
[5]
  internalization activity level: − (less than 5%)
[6]
  internalization activity level: ++ (15% or more and less than 25%)
[7]
  binding activity by flow cytometry (FCM), Antibody +: 61
[8]
  binding activity by flow cytometry (FCM), Antibody +: 37

B2: CD70 (protein, listed as Homo sapiens)
chain: MPEEGSGCSVRRRPYGCVLRAALVPLVAGLVICLVVCIQRFAQAQQQLPLESLGWDVAELQLNHTGPQQDPRLYWQGGPALGRSFLHGPELDKGQLRIHRDGIYMVHIQVTLAICSSTTASRHHPTTLAVGICSPASRSISLLRLSFHQGCTIASQRLTPLARGDTLCTNLTGTLLPSRNTDETFFGVQWVRP
[5]
  internalization activity level: +++ (25% or more)
[6]
  internalization activity level: +++ (25% or more)
[7]
  binding activity by flow cytometry (FCM), Antibody +: 1843
[8]
  binding activity by flow cytometry (FCM), Antibody +: 1177
